# Where “and” joins values, the source holds several entries; their conditions need not be identical. Identical values can stand only once. Like-named read-outs stand apart in the source and are kept apart here.
# Tested on: T. brucei lysate proteins
# Format: binding, Trypanosoma brucei
smiles,measurement,setting,value
"Nc1nc2c(c(=O)[nH]1)N(C=O)C(CNc1ccc(C(=O)N[C@@H](CCC(=O)O)C(=O)O)cc1)CN2 (stereo partly drawn) [LEU, leucovorin]",fold change vs vehicle control,,0.89 and 1.1 and 1.13
same,fold change,"protein CZB00000046.1 HA-UBIQUITIN, vehicle control = 1",0.69
same,fold change,"protein CZT00008884.1 […]-ASSOCIATED GENE 3 (ESAG3) PROTEIN, vehicle control = 1",1.21
same,fold change,"protein CZT00018965.1 RETRO[…] (RHS) PROTEIN 1, vehicle control = 1",1.3
same,fold change vs vehicle control,"protein TB09.160.3270 ATP-DEPENDENT DEAD BOX HELICASE, PUTATIVE, vehicle control = 1",1.53
same,fold change,"protein TB09.160.3710 PRO[…] NUCLEAR ANTIGEN (PCNA), PUTATIVE, vehicle control = 1",1
same,fold change vs vehicle control,"protein TB09.160.4200 60S ACIDIC RIBOSOMAL PROTEIN, PUTATIVE, vehicle control = 1",1.11
same,fold change vs vehicle control,"protein TB09.160.4250 TR[…], vehicle control = 1",1.26
same,fold change,"protein TB09.211.3540 GLYCEROL KINASE, GLYCOSOMAL, vehicle control = 1",1.39
same,fold change,"protein TB11.01.0450 PROTEIN PHOSPHATASE 1, PUTATIVE, vehicle control = 1",0.92
same,fold change,"protein TB11.01.1690 HY[…], CONSERVED, vehicle control = 1",1.4
same,fold change vs vehicle control,"protein TB11.01.2560 40S RIBOSOMAL PROTEIN SA, PUTATIVE, vehicle control = 1",0.87
same,fold change,"protein TB11.01.3560 VACUOLAR ATP SYNTHASE SUBUNIT B, PUTATIVE, vehicle control = 1",0.9
same,fold change vs vehicle control,"protein TB11.01.4370 HY[…], CONSERVED, vehicle control = 1",1.1
same,fold change,"protein TB11.01.5350 PROFILIN, vehicle control = 1",1.27
same,fold change,"protein TB11.01.8740 PROTEIN PHOSPHATASE 4, PUTATIVE, vehicle control = 1",0.73
same,fold change vs vehicle control,"protein TB11.02.1135 DYNEIN LIGHT CHAIN, PUTATIVE, vehicle control = 1",1.39
same,fold change vs vehicle control,"protein TB11.02.2040 HY[…], CONSERVED (ALBA-Domain Protein), vehicle control = 1",1.42
same,fold change vs vehicle control,"protein TB11.02.2510 GUANINE NUCLEOTIDE-BINDING BETA SUBUNIT-LIKE PROTEIN, vehicle control = 1",0.98
same,fold change,"protein TB11.02.2960 MIT[…] PROTEIN, PUTATIVE, vehicle control = 1",0.69
same,fold change vs vehicle control,"protein TB11.02.4170 40S RIBOSOMAL PROTEIN S5, PUTATIVE, vehicle control = 1",1.44
same,fold change vs vehicle control,"protein TB11.03.0250 C[…], vehicle control = 1",1.92
same,fold change vs vehicle control,"protein TB11.03.0530 HY[…], CONSERVED (hy[…] SCD6.10), vehicle control = 1",0.99
same,fold change vs vehicle control,"protein TB427TMP.01.0480 HY[…], CONSERVED, vehicle control = 1",1.07
same,fold change,"protein TB427TMP.01.1470 60S RIBOSOMAL PROTEIN L10A, PUTATIVE, vehicle control = 1",0.96
same,fold change vs vehicle control,"protein TB427TMP.01.1680 POLYUBIQUITIN, PUTATIVE, vehicle control = 1",1.44
same,fold change,"protein TB427TMP.01.2460 HY[…], CONSERVED, vehicle control = 1",0.97
same,fold change vs vehicle control,"protein TB427TMP.01.3370 […] PROTEIN, PUTATIVE, vehicle control = 1",1.11
same,fold change vs vehicle control,"protein TB427TMP.01.4280 HY[…], CONSERVED, vehicle control = 1",1.18
same,fold change,"protein TB427TMP.01.4650 HY[…], CONSERVED, vehicle control = 1",0.86
same,fold change vs vehicle control,"protein TB427TMP.01.5680 HY[…], CONSERVED, vehicle control = 1",1.44
same,fold change vs vehicle control,"protein TB427TMP.01.5690 DRBD4, vehicle control = 1",0.99
same,fold change,"protein TB427TMP.01.5960 MIT[…] PROTEIN, PUTATIVE, vehicle control = 1",0.85
same,fold change,"protein TB427TMP.01.6180 HY[…], CONSERVED, vehicle control = 1",0.75
same,fold change vs vehicle control,"protein TB427TMP.01.6890 SMALL GTPASE, PUTATIVE, vehicle control = 1",2.02
same,fold change,"protein TB427TMP.01.7490 HY[…], CONSERVED, vehicle control = 1",0.86
same,fold change vs vehicle control,"protein TB427TMP.01.7530 HY[…], CONSERVED, vehicle control = 1",1.1
same,fold change,"protein TB427TMP.01.8390 HY[…], CONSERVED, vehicle control = 1",0.84
same,fold change,"protein TB427TMP.01.8570 DYNEIN LIGHT IN[…] D1BLIC, PUTATIVE, vehicle control = 1",0.9
same,fold change,"protein TB427TMP.02.0030 DYNEIN HEAVY CHAIN, PUTATIVE, vehicle control = 1",0.83
same,fold change,"protein TB427TMP.02.0460 NUCLEOPORIN, vehicle control = 1",0.84
same,fold change,"protein TB427TMP.02.0760 DYNEIN HEAVY CHAIN, PUTATIVE, vehicle control = 1",0.55
same,fold change,"protein TB427TMP.02.4100 PRETRA[…], ALPHA SUBUNIT, PUTATIVE, vehicle control = 1",1.41
same,fold change vs vehicle control,"protein TB427TMP.02.4300 HY[…], CONSERVED, vehicle control = 1",1.07
same,fold change,"protein TB427TMP.02.4550 HY[…], CONSERVED, vehicle control = 1",0.97
same,fold change,"protein TB427TMP.02.5660 HY[…], CONSERVED, vehicle control = 1",0.76
same,fold change vs vehicle control,"protein TB427TMP.02.5720 RIBONUCLEOSIDE-DIPHOSPHATE REDUCTASE LARGE CHAIN, vehicle control = 1",0.95
same,fold change,"protein TB427TMP.03.0150 HY[…], CONSERVED, vehicle control = 1",0.88
same,fold change,"protein TB427TMP.160.2370 HY[…], CONSERVED, vehicle control = 1",0.95
same,fold change,"protein TB427TMP.160.4310 GLUTAMATE DEHYDROGENASE, vehicle control = 1",0.99
same,fold change vs vehicle control,"protein TB427TMP.160.4560 ARGININE KINASE, vehicle control = 1",2.29
same,fold change vs vehicle control,"protein TB427TMP.160.4620 INOSITOL-1(OR 4)-MONOPHOSPHATASE, PUTATIVE, vehicle control = 1",1.07
same,fold change vs vehicle control,"protein TB427TMP.160.4630 HY[…], CONSERVED, vehicle control = 1",1
same,fold change,"protein TB427TMP.160.4770 PROTEIN KINASE, PUTATIVE, vehicle control = 1",0.91
same,fold change,"protein TB427TMP.160.4910 FLAVOPROTEIN MONOOXYGENASE, PUTATIVE, vehicle control = 1",0.97
same,fold change,"protein TB427TMP.160.5670 HY[…], CONSERVED, vehicle control = 1",0.81
same,fold change,"protein TB427TMP.211.2730 GIM5A PROTEIN, vehicle control = 1",1.23
same,fold change vs vehicle control,"protein TB427TMP.211.3140 HY[…], CONSERVED, vehicle control = 1",1.57
same,fold change vs vehicle control,"protein TB427TMP.211.3510 ATP-DEPENDENT DEAD/H RNA HELICASE, PUTATIVE, vehicle control = 1",0.96
same,fold change vs vehicle control,"protein TB427TMP.22.0003 PHOSPH[…], PUTATIVE, vehicle control = 1",0.99
same,fold change,"protein TB427TMP.46.0001 60S ACIDIC RIBOSOMAL SUBUNIT PROTEIN, PUTATIVE, vehicle control = 1",0.96
same,fold change,"protein TB427TMP.47.0011 HY[…], CONSERVED, vehicle control = 1",0.89
same,fold change vs vehicle control,"protein TB427TMP.55.0006 INTR[…] PROTEIN IFT88, vehicle control = 1",1.07
same,fold change vs vehicle control,"protein TB427TMP.57.0008 CALPAIN-LIKE PROTEIN, PUTATIVE, vehicle control = 1",0.86
same,fold change vs vehicle control,"protein TB427.01.120 RETRO[…] SPOT (RHS) PROTEIN, PUTATIVE, vehicle control = 1",0.97
same,fold change,"protein TB427.01.2570 COATOMER BETA SUBUNIT, vehicle control = 1",0.97
same,fold change,"protein TB427.01.420 RETRO[…] SPOT (RHS) PROTEIN, PUTATIVE, vehicle control = 1",1.1
same,fold change vs vehicle control,"protein TB427.02.3880 HET[…] RIBONUC[…]/F, PUTATIVE, vehicle control = 1",1.3
same,fold change vs vehicle control,"protein TB427.02.5800 SEDOHEPTULOSE-1,7-BISPHOSPHATASE, vehicle control = 1",1.36
same,fold change vs vehicle control,"protein TB427.02.6050 BETA PRIME COP PROTEIN, vehicle control = 1",1.34
same,fold change,"protein TB427.03.1790 PYRUVATE DEHYDROGENASE E1 BETA SUBUNIT, PUTATIVE, vehicle control = 1",0.98
same,fold change vs vehicle control,"protein TB427.03.3160 POLY(A) POLYMERASE, vehicle control = 1",1.23
same,fold change vs vehicle control,"protein TB427.03.3950 HY[…], CONSERVED, vehicle control = 1",0.86
same,fold change vs vehicle control,"protein TB427.03.4040 HY[…], CONSERVED (Ankyrinrepeat), vehicle control = 1",3.1
same,fold change,"protein TB427.04.1300 HY[…], CONSERVED, vehicle control = 1",1.3
same,fold change vs vehicle control,"protein TB427.04.1510 PHOSPHOLIPID-TRA[…], PUTATIVE, vehicle control = 1",0.95
same,fold change vs vehicle control,"protein TB427.04.1660 MIT[…] PROTEIN, PUTATIVE, vehicle control = 1",1
same,fold change,"protein TB427.04.310 HY[…], CONSERVED, vehicle control = 1",0.93
same,fold change,"protein TB427.04.420 PHOSPHATIDYLINOSITOL 3-KINASE (TOR2), vehicle control = 1",0.74
same,fold change,"protein TB427.04.450 COATOMER ALPHA SUBUNIT, PUTATIVE, vehicle control = 1",1.1
same,fold change,"protein TB427.04.5010 CALRETICULIN, PUTATIVE, vehicle control = 1",2.06
same,fold change,"protein TB427.04.5200 NUCLEOPORIN (NUP54/57), PUTATIVE, vehicle control = 1",0.9
same,fold change,"protein TB427.05.1210 SHORT-CHAIN DEHYDROGENASE, PUTATIVE, vehicle control = 1",1.33
same,fold change vs vehicle control,"protein TB427.05.1320 HY[…], CONSERVED, vehicle control = 1",1.07
same,fold change vs vehicle control,"protein TB427.05.1700 R[…] A 28 KDA SUBUNIT, PUTATIVE, vehicle control = 1",1.31
same,fold change vs vehicle control,"protein TB427.05.3260 HY[…], CONSERVED, vehicle control = 1",0.99
same,fold change,"protein TB427.05.3400 CALCIUM-TRA[…]-TYPE ATPASE, vehicle control = 1",1.28
same,fold change vs vehicle control,"protein TB427.05.4560 GUANINE DEAMINASE, PUTATIVE, vehicle control = 1",0.95
same,fold change vs vehicle control,"protein TB427.06.1500 ALKYL-DIHYDR[…] SYNTHASE, vehicle control = 1",0.97
same,fold change,"protein TB427.06.3500 ENDOSOMAL T[…] RME-8, PUTATIVE, vehicle control = 1",0.71
